PMC11645656, “MRGPRX4 mediates phospho-drug associated pruritus in a humanized mouse model” (Science translational medicine, 2024)
“And” between values parts separate entries of the source, which are not always exact repeats. Equal values may be shown once. Where a name gives a salt, the structure may show the parent alone.

Tests used:
NP2-X4+ DRG neurons = assay: GCaMP6s calcium imaging of cultured NP2-X4+ DRG neurons; type: cell-based, mouse; details: 10 μM phospho-drugs; 1 mM CQ
Text: (§1) Fig. 2. Phosphate monoester prodrugs induce itch in NP2-MRGPRX4+ mice through activating NP2 primary sensory neurons. (A) Mating strategy to generate NP2-X4+ mice. (B) In situ hybridization showing MRGPRX4 transcripts (magenta) in NP2-X4+ DRG as indicated by arrowheads (left) but not in littermate control NP2-WT (right). NP2 subpopulation accounts for 5% of total DRG neurons. DAPI, blue. Scale bar, 50 μm. […]. Data are expressed as mean ± SEM. *p< 0.05, **p< 0.01 and ***p< 0.001 by two-tailed unpaired Student’s t-test. ns = no statistical significance observed. (D and E) Traces of average (top, depicted as mean ± 95% confidence interval) and individual (bottom, reflected by the heatmap) calcium activity, measured by fluorescence intensity normalized to the baseline intensity (FT/F0) over time of NP2-X4+ (D) and NP2-WT (E) DRG neurons labelled with GCaMP6s (n = 110–150 neurons pooled from 3–7 independent culture vessels from 2–4 mice in each condition). 10 μM phospho-drugs and 1 mM CQ were added as indicated by the arrowheads. Neurons with FT/F0 > 1.5 after compound application were considered a positive responder. NP2-X4+: NP2-MRGPRX4+; DRG, dorsal root ganglia; CQ: chloroquine.
The procedures were performed following previously established protocols ([15]). Murine DRGs (from both male and female) were harvested from all spinal segments and digested in dispase (5 mg/ml) / type I collagenase (1 mg/ml) enzyme mix at 37 °C for an hour. Enzyme mix was replaced with complete DH10 media (90% DMEM/F12, 10% FBS, penicillin (100 units/ml), and streptomycin (100 μg/ml)) and gently triturated with 1 ml pipette tip until the media turned cloudy without visible tissue chunks. Dissociated tissues were filtered through a 70 μm filter and spun down 1250 rpm for 5 min at RT. Supernatant was removed and the cell pellet was resuspended in complete DH10 media. Cell suspension was then added on top of poly-D-lysine- and laminin-coated coverslips and sat for 1–2 h at 37°C. Complete DH10 media supplemented with NGF (50 ng/ml) was then added into the vessel. Neurons were allowed to recover overnight at 37°C for the next-day calcium imaging experiment.
Calcium imaging data was collected with a Nikon Eclipse TE 200 microscope. Time series GCaMP6 fluorescence intensity was acquired through the FITC/GFP channel. Before the imaging, cultured neurons were washed and equilibrated in CIB for 30 min at 37°C. In each trial, compounds (as indicated in the results) were added into the imaging chamber after a 30 s baseline GCaMP6 activity was collected. […] Neurons with GCaMP6 signal rose above 50% of the baseline intensity after compound application were counted as positive responders and the percentage of responding neurons was calculated. […]

NP2-WT DRG neurons = assay: GCaMP6s calcium imaging of cultured NP2-WT DRG neurons; type: cell-based, mouse; details: 10 μM phospho-drugs; 1 mM CQ
Text: as §1, with “Neurons with FT/F0 > 1.5 after compound application were considered a positive responder. NP2-X4+: NP2-MRGPRX4+; DRG, dorsal root ganglia; CQ: chloroquine.” left out
Calcium imaging data was collected with a Nikon Eclipse TE 200 microscope. Time series GCaMP6 fluorescence intensity was acquired through the FITC/GFP channel. […] Neurons with GCaMP6 signal rose above 50% of the baseline intensity after compound application were counted as positive responders and the percentage of responding neurons was calculated. […]

[1] = system: NP2-X4+ mice (MRGPRX4 in Mrgpra3+ NP2 sensory neurons); assay: Itch behavioral study (scratching bouts after subcutaneous nape injection) in NP2-X4+ mice; type: in vivo, mouse; details: for Scratching bouts of individual animals: NP2-X4+, 30 min after injection of 50 μl 10 mM into the nape, each cell one mouse
NP2-WT mice = assay: Itch behavioral study (scratching bouts after subcutaneous nape injection) in littermate control NP2-WT mice; type: in vivo; details: 30 min after injection of 50 μl 10 mM into the nape, each cell one mouse
Text: Fig. 2. Phosphate monoester prodrugs induce itch in NP2-MRGPRX4+ mice through activating NP2 primary sensory neurons. (A) Mating strategy to generate NP2-X4+ mice. (B) In situ hybridization showing MRGPRX4 transcripts (magenta) in NP2-X4+ DRG as indicated by arrowheads (left) but not in littermate control NP2-WT (right). NP2 subpopulation accounts for 5% of total DRG neurons. DAPI, blue. Scale bar, 50 μm. […] . Data are expressed as mean ± SEM. *p< 0.05, **p< 0.01 and ***p< 0.001 by two-tailed unpaired Student’s t-test. ns = no statistical significance observed. (D and E) Traces of average (top, depicted as mean ± 95% confidence interval) and individual (bottom, reflected by the heatmap) calcium activity, measured by fluorescence intensity normalized to the baseline intensity (FT/F0) over time of NP2-X4+ (D) and NP2-WT (E) DRG neurons labelled with GCaMP6s (n = 110–150 neurons pooled from 3–7 independent culture vessels from 2–4 mice in each condition). 10 μM phospho-drugs and 1 mM CQ were added as indicated by the arrowheads. Neurons with FT/F0 > 1.5 after compound application were considered a positive responder. NP2-X4+: NP2-MRGPRX4+; DRG, dorsal root ganglia; CQ: chloroquine.
. All the animals used were heterozygous unless otherwise specified. NP2-X4+ and NP2-WT littermates were generated by crossing Mrgpra3-Cre to Rosa26-lsl-MRGPRX4 as detailed previously ([15]). NP2-X4+ mice were further crossed to homozygous Rosa26-lsl-GCaMP6s to obtain NP2-WT/GCaMP6s and NP2-X4+/GCaMP6s animals. A detailed mating strategy is illustrated in fig. S5. Pirt-Cre-GCaMP6s animals were acquired by crossing Pirt-Cre to homozygous Rosa26-lsl-GCaMP6s. Pirt-Cre animals were generated through homologous recombination as indicated previously ([37]). Rosa26-lsl-GCaMP6s mouse line was provided by Dr. Dwight Bergles’ lab at the Johns Hopkins School of Medicine.

HTLA cells = assay: PRESTO-Tango β-arrestin recruitment assay, parental HTLA cells without MRGPRX4 (control, fig. S1); type: cell-based
Text: Supplement NIHMS2038790-supplement-table.xlsx, sheet "fig. S1" | column: Concentration (M)

[2] = vs dexamethasone; cited from earlier work
WT mice = assay: Itch behavioral study in WT mice across concentrations (fig. S4)
Description: Experimenters and subjects scoring the recorded videos were both blind to the mouse genotype and tested compounds. Behavioral tests comparing NP2-WT and NP2-X4+ scratching behavior were 6–12weeks old littermates including both genders. In brief, on the day preceding the experiment, animals were acclimated to the test chamber for at least 30 min and the experimenters performed mock injections 1–2 times in between. On the day of experiments, animals were habituated in test chambers for 10 min before receiving subcutaneous injection of 50ul compounds. Videos were recorded for 30 min after the injection. A bout of scratching was defined as a sustained scratching movement initiated by hindpaws toward the injection site (until the pause of the movement / withdrawal of the hindpaw). Scratching bouts were quantified within the 30 min record sessions.

MRGPRX4 (S83) = target: T1, MRGPRX4 (S83) (Homo sapiens, UniProt Q96LA9, L83S); assay: EC50 determination, intracellular calcium mobilization in MRGPRX4 stably expressed HEK293 cells (FLIPR Calcium 5, Flexstation-3); type: cell-based; details: propofol series, individual replicate values
T1 construct: expressed in transfected cells
T1 sequence (Q96LA9 whole entry L83S): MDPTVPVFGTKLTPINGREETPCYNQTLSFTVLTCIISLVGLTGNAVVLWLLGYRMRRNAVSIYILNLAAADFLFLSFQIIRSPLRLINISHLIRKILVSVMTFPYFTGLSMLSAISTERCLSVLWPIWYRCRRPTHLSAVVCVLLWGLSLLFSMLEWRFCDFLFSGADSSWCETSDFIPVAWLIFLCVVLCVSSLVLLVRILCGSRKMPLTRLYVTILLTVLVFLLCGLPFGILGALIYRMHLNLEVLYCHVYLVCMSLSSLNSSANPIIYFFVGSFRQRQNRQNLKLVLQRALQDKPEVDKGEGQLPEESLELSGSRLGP
How it was run: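 EC50 came from a four-parameter logistic fit to averaged triplicate responses, each response being maximum post-stimulation signal less baseline. Intracellular calcium was monitored with Calcium 5 dye in HBSS with 20 mM HEPES, pH 7.4, after 1 h dye loading at 37 °C, using stably transfected HEK293 cells and parental controls.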

CCN(CC)CCCC(C)Nc1ccnc2cc(Cl)ccc12 (stereo not shown) [Chloroquine]
Calcium response of NP2-X4+ neurons (NP2-X4+ DRG neurons): responded | Calcium response of NP2-WT neurons (NP2-WT DRG neurons): responded

C[C@@H]1C[C@H]2[C@@H]3CCC4=CC(=O)C=C[C@]4(C)[C@@]3(F)[C@@H](O)C[C@]2(C)[C@@]1(O)C(=O)COP(=O)(O)O [Dexamethasone phosphate]
Scratching bouts of individual animals [1]: 19 and 29 and 40 and 22 and 17 and 35 and 2 and 71 and 63 and 41 | Scratching bouts of individual animals (NP2-WT mice): 4 and 14 and 5 (2×) and 8 and 3 (2×) and 18 and 12 and 42 | Calcium response of NP2-X4+ neurons (NP2-X4+ DRG neurons): strong calcium transients | PRESTO-Tango response (fig. S1), single replicate (HTLA cells; concentration 4.88e-7 M): 0.002254 and 0.004793 and 0.008408 and 0.006888 and 0.003935 and 0.001659 | PRESTO-Tango response (fig. S1), single replicate (HTLA cells; concentration 9.77e-7 M): 0.004343 and 0.01198 and 0.02598 and 0.007642 and 0.02244 and 0.00537 | PRESTO-Tango response (fig. S1), single replicate (HTLA cells; concentration 1.95e-6 M): 0.003939 and 0.005577 and 0.007884 and 0.006351 and 0.008709 and 0.001173 | PRESTO-Tango response (fig. S1), single replicate (HTLA cells; concentration 3.91e-6 M): 0.006644 and 0.008139 and 0.007744 and 0.01012 and 0.008517 and 0.007795 | PRESTO-Tango response (fig. S1), single replicate (HTLA cells; concentration 7.81e-6 M): 0.008709 and 0.01255 and 0.009916 and 0.01429 and 0.003964 and 0.009591 | PRESTO-Tango response (fig. S1), single replicate (HTLA cells; concentration 1.56e-5 M): 0.01013 and 0.0155 and 0.008817 and 0.01021 and 0.0162 and 0.001357 | PRESTO-Tango response (fig. S1), single replicate (HTLA cells; concentration 3.13e-5 M): 0.01293 and 0.02454 and 0.01076 and 0.01089 and 0.02171 and 0.002693 | PRESTO-Tango response (fig. S1), single replicate (HTLA cells; concentration 6.25e-5 M): 0.01139 and 0.03821 and 0.01576 and 0.0127 and 0.01288 and 0.03538 | PRESTO-Tango response (fig. S1), single replicate (HTLA cells; concentration 0.00025 M): 0.01585 and 0.06272 and 0.01054 and 0.02134 and 0.01844 and 0.04104 | PRESTO-Tango response (fig. S1), single replicate (HTLA cells; concentration 0.0005 M): 0.01737 and 0.05973 and 0.009456 and 0.02137 and 0.0304 and 0.02084 | Enhancement of aqueous solubility [2]: more than 500 fold | Scratching bouts (each well represents individual mouse) (WT mice; 1 mM subcutaneous nape injection): 5 and 12 and 10 and 47 | Scratching bouts (each well represents individual mouse) (WT mice; 10 mM subcutaneous nape injection): 2 and 30 and 18 and 13

CC(C)c1cccc(C(C)C)c1OS(=O)(=O)O [Propofol sulfate]
Fig. 1D dose-response, calcium response at Concentration (M) (MRGPRX4 (S83); 9.76563e-7 M): -9.765 and -0.941 and -3.534 and -7.698 and -0.440 and -6.103 and -0.412 and -8.690 and -5.139 | Fig. 1D dose-response, calcium response at Concentration (M) (MRGPRX4 (S83); 1.95313e-6 M): 6.750 and 16.267 and 9.058 and 9.006 and 15.719 and 7.351 and 7.826 and 16.017 and 8.232 | Fig. 1D dose-response, calcium response at Concentration (M) (MRGPRX4 (S83); 3.90625e-6 M): 4.213 and 7.941 and 5.294 and 9.099 and 3.195 and 5.153 and 8.684 and 2.706 and 6.058 | Fig. 1D dose-response, calcium response at Concentration (M) (MRGPRX4 (S83); 7.8125e-6 M): -1.463 and -6.718 and -3.371 and -0.821 and -4.964 and -5.766 and -0.353 and -2.243 and -8.955 | Fig. 1D dose-response, calcium response at Concentration (M) (MRGPRX4 (S83); 1.5625e-5 M): -10.261 and -6.059 and -2.116 and -7.312 and -10.479 and -0.646 and -4.250 and -7.396 and -6.790 | Fig. 1D dose-response, calcium response at Concentration (M) (MRGPRX4 (S83); 3.125e-5 M): -14.578 and -1.085 and -26.180 and -14.763 and -11.464 and -15.617 and -4.490 and -19.590 and -17.764 | Fig. 1D dose-response, calcium response at Concentration (M) (MRGPRX4 (S83); 6.25e-5 M): -6.291 and -44.109 and -11.407 and -17.994 and -28.042 and -15.772 and -23.530 and -32.512 and -5.766 | Fig. 1D dose-response, calcium response at Concentration (M) (MRGPRX4 (S83); 0.00025 M): -9.210 and -19.710 and -18.950 and -19.770 and -23.073 and -5.027 and -19.240 and -15.426 and -13.204 | Fig. 1D dose-response, calcium response at Concentration (M) (MRGPRX4 (S83); 0.0005 M): -0.269 and -0.640 and -0.169 and -0.708 and -0.172 and -0.198 and -0.248 and -0.541 and -0.289 | Fig. 1D dose-response, calcium response at Concentration (M) (MRGPRX4 (S83); 0.001 M): 6.469 and 6.229 and 2.832 and 5.169 and 2.033 and 8.329 and 8.781 and 6.580 and 0.170 | Scratching / itch behavior, NP2-X4+ mice vs WT littermates ([1]; 50 μl 10 mM nape injection, 30 min): no differences in itch behavior were detected | Scratching bouts of individual animals [1]: 4 and 14 (2×) and 2 and 12 (2×) and 11 and 42 and 6 | Scratching bouts of individual animals (NP2-WT mice): 15 and 0 and 6 and 5 and 3 and 11
